Experiments:
[1] = test system: H358 cells; assay: Anti-cell proliferation experiment of H358 cell 3D model (soft agar); assay type: cell-based; conditions: Homo sapiens, 336 h; NCI-H358, soft agar, 14 days co-incubation, Almar blue; read-out: Anti-proliferation inhibitory activity in H358 cell 3D model IC50
Experimental: RPMI1640 medium, fetal bovine serum, and penicillin/streptomycin antibiotics were purchased from Wisent, and low-melting agarose was purchased from Sigma. Almar blue reagent was purchased from Invitrogen. NCI-H358 cell line was purchased from Nanjing CoBioer Co., Ltd. Nivo multi-label analyzer (PerkinElmer).
H358 cells were seeded into a 96-well U-shaped plate. First, low-melting agarose was prepared into a 2% stock solution. Before use, the agarose stock solution was heated in a microwave oven to completely melt it, and then placed in a 42° C. water bath to keep the agarose in a liquid state. The gel was added to the serum-containing medium to prepare a gel with a concentration of 0.6% as the bottom layer gel, which was then dispensed into the 96-well U-shaped plate at 50 μL per well. After the bottom layer gel solidifies, 2% gel was added to the cell-containing medium to prepare a cell-containing top layer gel with a gel concentration of 0.4%. The cell density was […], and 75 μL was added to each well of the 96-well U-shaped plate with the bottom layer gel, resulting in a cell density of 3000 cells per well. […]
On the day of compound addition, 85 μL of liquid medium is added to the 96-well U-shaped plate with pre-seeded cells. […] The readings were taken using a multi-label analyzer. […]

[2] = test system: p-ERK in DLD-1 cells (KRAS G13D mutation); assay: pERK expression levels in DLD-1 cells using HTRF; assay type: cell-based; conditions: Homo sapiens, 1.5 h compound incubation, read-out: Inhibitory activity against p-ERK in DLD-1 cells IC50
Experimental: The phosphorylation level of ERK protein in DLD-1 cells with KRAS G13D mutation was detected by the Homogeneous Time-Resolved Fluorescence (HTRF) method, and the IC50 and IC90 values of compounds are employed as indicators to evaluate the inhibitory activity of these compounds towards ERK phosphorylation within the RAS signaling pathway.
1) DLD-1 cells (50,000 cells/well) were seeded into a 96-well plate, and each well was filled with 90 μL of RPMI-1640 medium (10% fetal bovine serum), and then placed in a 37° C., 5% carbon dioxide incubator for overnight culture.
10 μL of DMSO-cell culture medium mixture were added to the solvent control and positive control, with a final DMSO concentration of 0.25%. The 96-well cell plate was then returned to the incubator for 1.5 h of culture.
4) The cell supernatant was removed, and 50 μL of 1× lysis buffer was immediately added, followed by shaking and incubation at room temperature for 30 min.
5) A pipette was used to blow and mix the solution evenly, and 16 μL of cell lysate was transferred from the 96-well plate to the HTRF 384-well detection plate.
6) 4 μL of pre-mixed antibody solution were added, the plate was sealed, and incubated at 4° C. The fluorescence emission intensities at 665 nm and 620 nm were detected using an HTRF plate reader. […]

[3] = target: T1, KRAS (G12C) and SOS1 (Homo sapiens, UniProt Q07889); assay: KRAS (G12C) and SOS1 binding experiment (HTRF); conditions: SOS1 exchange domain (564-1049), 25° C. for 60 min, read-out: KRAS (G12C) and SOS1 binding inhibitory activity IC50
T1 sequence (Q07889 564-1049): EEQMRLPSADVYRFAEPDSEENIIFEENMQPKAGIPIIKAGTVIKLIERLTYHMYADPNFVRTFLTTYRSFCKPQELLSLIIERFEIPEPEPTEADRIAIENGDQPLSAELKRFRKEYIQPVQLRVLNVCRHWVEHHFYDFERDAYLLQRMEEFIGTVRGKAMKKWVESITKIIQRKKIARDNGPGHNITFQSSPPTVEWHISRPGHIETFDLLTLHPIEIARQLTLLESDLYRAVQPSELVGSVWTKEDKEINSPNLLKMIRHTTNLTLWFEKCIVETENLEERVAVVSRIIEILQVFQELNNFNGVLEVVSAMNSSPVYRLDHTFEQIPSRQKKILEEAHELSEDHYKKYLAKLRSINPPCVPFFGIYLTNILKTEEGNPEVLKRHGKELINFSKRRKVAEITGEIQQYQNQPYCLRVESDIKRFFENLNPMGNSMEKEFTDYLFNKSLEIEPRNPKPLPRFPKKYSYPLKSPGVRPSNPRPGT
Experimental: The multi-functional microplate reader Nivo5 was purchased from PerkinElmer.
Preparation method: 4-hydroxyethylpiperazine ethyl sulfonate (Hepes): 5 mM; sodium chloride (NaCl): 150 mM; ethylenediaminetetraacetic acid (EDTA): 10 mM, CO-630 (Igepal): 0.0025%, potassium fluoride (KF): 100 mM; dithiothreitol (DTT): 1 mM; and bovine serum albumin (BSA): 0.05%.
1) The test compound was diluted five-fold using DMSO with a multi-channel pipette until the 8th concentration was achieved, starting from 1 mM and ending at 0.064 μM.
2) The various gradients of the test compound were diluted with 1 buffer to form working solutions containing 2% DMSO. 5 μL of each working solution was then dispensed into the corresponding wells, with a concentration gradient ranging from 20 μM to 0.00128 nM. Duplicate well experiment was set up for each concentration. Following this, the plate was centrifuged at 1000 rpm for 1 min.
3) A mixed working solution containing KRAS (G12C) at a concentration of 200 nM and Mab Anti GST-Eu cryptate at a concentration of […] was prepared using 1× buffer. […]
4) A mixed working solution containing SOS1 at a concentration of 80 nM and Mab Anti 6HIS-XL665 at a concentration of […] was prepared using 1× buffer. […] After the reaction was completed, the HTRF was read using a multi-label analyzer. […]

C=C[C@@H](Nc1nc(C)nc2cc(=O)n(C3(C(F)F)CC3)cc12)c1cccc(C(F)F)c1F [Compounds as shown in formula (I)]
IC50 [1]: 91 nM | IC50 [2]: 37 nM | IC50 [3]: 13 nM
